Assay [1] has as its system Calf thymus DNA. Description: Binding affinity to site 4 human telomeric 5'GGTTAGGGTTA3' sequence in 219 bp calf thymus DNA fragment assessed as DNA alkylating activity at 20 to 500 nM after 12 hrs by PAGE in presence of distamycin A. Format: nucleic-acid assay.
The test system of assay [2] is Calf thymus DNA. Briefly: Binding affinity to human telomeric repeat sequence in 219 bp calf thymus DNA fragment assessed as DNA alkylating activity at 20 to 500 nM after 12 hrs by PAGE. Type of assay: nucleic-acid assay.
Assay [3] concerns Calf thymus DNA. Description: Binding affinity to human telomeric repeat sequence in 219 bp calf thymus DNA fragment assessed as DNA alkylating activity at 20 to 500 nM after 12 hrs by PAGE in presence of 3-(4-(4-(4-(3-(3-(4-(4-(4-(4-acetamido-1-methyl-1H-pyrrole-2-carboxamido)-1-methyl-1H-pyrrole-2-carboxamido)-1-methyl-1H-pyrrole-2-carboxamido)-1-methyl-1H-pyrrole-2-carboxamido)propanamido)propanamido)-1-methyl-1H-pyrrole-2-carboxamido)-1-methyl-1H-pyrrole-2-carboxamido)-1-methyl-1H-pyrrole-2-carboxamido)-N,N-dimethylpropan-1-aminium. Format: nucleic-acid assay.

The test system of assay [4] is Calf thymus DNA. Description: Binding affinity to site 2 human telomeric 5'GGTTAGGGTTA3' sequence in 219 bp calf thymus DNA fragment assessed as DNA alkylating activity at 20 to 500 nM after 12 hrs by PAGE in presence of {3-[(4-{[4-({4-[(4-Acetylamino-1-methyl-1H-pyrrole-2-carbonyl)-amino]-1-methyl-1H-pyrrole-2-carbonyl}-amino)-1-methyl-1H-pyrrole-2-carbonyl]-amino}-1-methyl-1H-pyrrole-2-carbonyl)-amino]-propyl}-dimethyl-ammonium. Format: nucleic-acid assay.

Assay [5] has as its system Calf thymus DNA. Briefly: Binding affinity to site 3 human telomeric 5'GGTTAGGGTTA3' sequence in 219 bp calf thymus DNA fragment assessed as DNA alkylating activity at 20 to 500 nM after 12 hrs by PAGE in presence of {3-[(4-{[4-({4-[(4-Acetylamino-1-methyl-1H-pyrrole-2-carbonyl)-amino]-1-methyl-1H-pyrrole-2-carbonyl}-amino)-1-methyl-1H-pyrrole-2-carbonyl]-amino}-1-methyl-1H-pyrrole-2-carbonyl)-amino]-propyl}-dimethyl-ammonium. Type of assay: nucleic-acid assay.

Assay [6] deals with Calf thymus DNA. Description: Binding affinity to site 4 human telomeric 5'GGTTAGGGTTA3' sequence in 219 bp calf thymus DNA fragment assessed as DNA alkylating activity at 20 to 500 nM after 12 hrs by PAGE in presence of {3-[(4-{[4-({4-[(4-Acetylamino-1-methyl-1H-pyrrole-2-carbonyl)-amino]-1-methyl-1H-pyrrole-2-carbonyl}-amino)-1-methyl-1H-pyrrole-2-carbonyl]-amino}-1-methyl-1H-pyrrole-2-carbonyl)-amino]-propyl}-dimethyl-ammonium. Format: nucleic-acid assay.

Assay [7] deals with Calf thymus DNA. Description: Binding affinity to site 2 human telomeric 5'GGTTAGGGTTA3' sequence in 219 bp calf thymus DNA fragment assessed as DNA alkylating activity at 20 to 500 nM after 12 hrs by PAGE in presence of distamycin A. Format: nucleic-acid assay.
Assay [8] deals with Calf thymus DNA. Briefly: Binding affinity to site 3 human telomeric 5'GGTTAGGGTTA3' sequence in 219 bp calf thymus DNA fragment assessed as DNA alkylating activity at 20 to 500 nM after 12 hrs by PAGE in presence of distamycin A. Type of assay: nucleic-acid assay.
The test system of assay [9] is Calf thymus DNA. Briefly: Binding affinity to human telomeric repeat sequence in 219 bp calf thymus DNA fragment assessed as DNA alkylating activity at 200 nM after 12 hrs by PAGE in presence of {3-[(4-{[4-({4-[(4-Acetylamino-1-methyl-1H-pyrrole-2-carbonyl)-amino]-1-methyl-1H-pyrrole-2-carbonyl}-amino)-1-methyl-1H-pyrrole-2-carbonyl]-amino}-1-methyl-1H-pyrrole-2-carbonyl)-amino]-propyl}-dimethyl-ammonium. Type of assay: nucleic-acid assay.

In assay [10] the test system is Calf thymus DNA. Briefly: Binding affinity to human telomeric repeat sequence in 219 bp calf thymus DNA fragment assessed as DNA alkylating activity at 200 nM after 12 hrs by PAGE in presence of distamycin A. Type of assay: nucleic-acid assay.
For assay [11], the system named is Jurkat. Description: Cytotoxicity against human Jurkat cells after 48 hrs by WST-8 assay. Type of assay: functional, cell-based. Background: Tetrazolium dyes change colour on reduction, which living cells bring about.
Assay [12] deals with Jurkat. Description: Cytotoxicity against human Jurkat cells after 48 hrs by WST-8 assay in presence of 10 uM {3-[(4-{[4-({4-[(4-Acetylamino-1-methyl-1H-pyrrole-2-carbonyl)-amino]-1-methyl-1H-pyrrole-2-carbonyl}-amino)-1-methyl-1H-pyrrole-2-carbonyl]-amino}-1-methyl-1H-pyrrole-2-carbonyl)-amino]-propyl}-dimethyl-ammonium pretreated 24 hrs before compound addition. Type of assay: functional, cell-based.

Assay [13] relates to Jurkat. Description: Cytotoxicity against human Jurkat cells after 48 hrs by WST-8 assay in presence of 10 uM distamycin A pretreated 24 hrs before compound addition. Type of assay: functional, cell-based.

From ChEMBL document CHEMBL1143343, “Cooperative alkylation of double-strand human telomere repeat sequences by PI polyamides with 11-base-pair recognition based on a heterotrimeric design” (Bioorg Med Chem, 2009) come the findings set out here.

One may read the pIC50 as −log10 of the IC50, conventionally taken in molar units.

pIC50: −log10 of the molar value. Active and inactive are the calls of the source. The calls are words filed in the database; no cut-off is given here.

Take `CC(=O)Nc1cn(C)c(C(=O)Nc2cn(C)c(C(=O)Nc3cn(C)c(C(=O)NCCC(=O)NCCC(=O)Nc4cn(C)c(C(=O)Nc5cn(C)c(C(=O)Nc6cn(C)c(C(=O)Nc7ccc8[nH]c(C(=O)N9CC(CCl)c%10c9cc(O)c9ccccc%109)cc8c7)n6)n5)n4)n3)n2)n1` (stereo not drawn): the result in the assay on Calf thymus DNA [1], with Calf thymus DNA [3], in the assay with Calf thymus DNA [4], with Calf thymus DNA [5], in the assay on Calf thymus DNA [6] and with Calf thymus DNA [7] was Active. Moreover, the outcome with Calf thymus DNA [8], in the assay on Calf thymus DNA [9] and in the assay on Calf thymus DNA [10] was Active. In the assay with Calf thymus DNA [2], the outcome was inactive. In addition, the results for the pIC50 in the assay with Jurkat [11], in the assay on Jurkat [12] and in the assay on Jurkat [13] were 7.00, 7.10 and 7.49, respectively.
